Measured values from patent publication US12258317B2, “Isoquinolinone compound for inhibiting ssao/vap-1, and use thereof” (SUNSHINE LAKE PHARMA CO., LTD., priority 2019, dated 2025).
pIC50: −log10 of the molar value. Structures can show the parent of a compound that is named as a salt.

Tests used:
Human recombinant DAO = Human recombinant DAO (Homo sapiens (Human), UniProt P19801); assay: Determination of selective inhibition of DAO (diamine oxidase) (Amplex Red, 1,4-diaminobutane substrate); assay type: biochemical; conditions: 30 min pre-incubation at 37° C.
Text: 2. Determination of Selective Inhibition of DAO (Diamine Oxidase)
Test purpose: The following method is used to determine the selective inhibitory activity of the compound of the present invention on DAO.
• Human recombinant DAO (Recombinant Human ABP-1/DAO) was purchased from R&D, Cat. No. 8298-AO; • Amplex® Red Hydrogen PeroxidePeroxidase Assay Kit was purchased from Invitrogen, Cat. No. A22188; • 1,4-Diaminobutane dihydrochloride was purchased from Aladdin, Cat. No. D106194-25G. Test Method:
The test compound was dissolved in DMSO and diluted 5 times to a total of 6 concentrations. In a 384-well plate, 24 μL of human recombinant DAO (1 μg/mL) was added into each well. 1 μL of test compounds at different concentrations were added to each well containing human recombinant DAO, and the plate was incubated at 37° C. for 30 min. After incubating for 30 min, 25 μL of Amplex® Red Hydrogen Peroxide Peroxidase Assay Kit (containing 100 μM Amplex® Red and 0.2 U/ml HRP) containing 1 M 1,4-butanediamine dihydrochloride was added into the corresponding wells, and the plate was incubated in the dark at 37° C. for 30 min. After 30 min, PHERAstar FSX microplate reader of BMG LABTECH was used to read the fluorescence value (RFU) under excitation at 540 nm and emission at 580 nm. The graph was drawn using Graph Pad Prism 5 software to calculate the IC50 value.

[1] = molecular target: human recombinant SSAO/VAP-1 (Homo sapiens (Human), UniProt Q16853); assay: Determination of inhibitory activity of human recombinant SSAO/VAP-1 (Amplex Red, benzylamine substrate); assay type: biochemical; conditions: 30 min pre-incubation at room temperature; read-out: SSAO/VAP-1 (Human Recombinant Protein) IC50
Text: 1. Determination of Inhibitory Activity of Human Recombinant SSAO/VAP-1
Test purpose: The following method is used to determine the inhibitory activity of the compounds in the examples of the present invention on human recombinant SSAO/VAP-1.
• Human recombinant SSAO/VAP-1 (VAP-1, human) was purchased from Sigma, Cat. No. SRP6241; • Amplex® Red Monoamine Oxidase Assay Kit was purchased from Invitrogen, Cat. No. A12214; • 384-well plate was purchased from Corning, Cat. No. 6005174; • Amplex® Red Hydrogen PeroxidePeroxidase Assay Kit was purchased from Invitrogen, Cat. No. A22188.
Benzylamine hydrochloride was purchased from Sigma, Cat. No. B5136-25G; • DMSO (Dimethyl Sulfoxide) was purchased from Sigma, Cat. No. D2650-100ML; Test Method:
The test compound was dissolved in DMSO and diluted 4 times to a total of 10 concentrations. In a 384-well plate, 25 μL of human recombinant SSAO/VAP-1 (1.6 μg/mL) was added into each well. 100 nL of test compounds at different concentrations were added to each well containing human recombinant SSAO/VAP-1, and the plate was incubated at room temperature for 30 min. After incubating for 30 min, 25 μL of Amplex® Red Monoamine Oxidase Assay Kit (a reaction mixture containing 200 μM Amplex Red reagent, 1 U/mL HRP and 1 mM benzylamine hydrochloride) was added into the corresponding wells, and the plate was incubated at room temperature in the dark for 60 min. After 60 min, PerkinElmer's Envision was used to read the fluorescence value (RFU) under excitation at 530-560 nm and emission at 590 nm. The graph was drawn using Graph Pad Prism 5 software to calculate the IC50 value.

Human recombinant DAO, sequence (P19801 20-751): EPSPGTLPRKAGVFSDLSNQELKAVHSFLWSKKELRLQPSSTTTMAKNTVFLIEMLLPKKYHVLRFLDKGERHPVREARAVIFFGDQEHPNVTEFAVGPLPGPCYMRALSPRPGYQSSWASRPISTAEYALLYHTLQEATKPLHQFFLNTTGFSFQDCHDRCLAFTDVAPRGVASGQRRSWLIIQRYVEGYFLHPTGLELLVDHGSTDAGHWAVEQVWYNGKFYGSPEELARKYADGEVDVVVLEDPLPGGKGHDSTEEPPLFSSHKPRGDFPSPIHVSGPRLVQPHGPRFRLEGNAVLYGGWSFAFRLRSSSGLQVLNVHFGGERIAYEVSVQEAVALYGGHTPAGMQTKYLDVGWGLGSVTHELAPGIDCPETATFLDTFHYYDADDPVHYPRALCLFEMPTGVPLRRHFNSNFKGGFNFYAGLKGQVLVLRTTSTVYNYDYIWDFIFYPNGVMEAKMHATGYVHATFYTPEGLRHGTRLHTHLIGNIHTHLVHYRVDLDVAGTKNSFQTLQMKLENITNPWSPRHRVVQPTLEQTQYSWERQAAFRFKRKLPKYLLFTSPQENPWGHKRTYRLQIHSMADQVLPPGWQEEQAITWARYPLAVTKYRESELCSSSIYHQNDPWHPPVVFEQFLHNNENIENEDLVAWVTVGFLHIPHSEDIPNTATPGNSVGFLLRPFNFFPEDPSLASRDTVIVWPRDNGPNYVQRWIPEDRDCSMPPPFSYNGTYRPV
human recombinant SSAO/VAP-1, sequence (Q16853 whole entry): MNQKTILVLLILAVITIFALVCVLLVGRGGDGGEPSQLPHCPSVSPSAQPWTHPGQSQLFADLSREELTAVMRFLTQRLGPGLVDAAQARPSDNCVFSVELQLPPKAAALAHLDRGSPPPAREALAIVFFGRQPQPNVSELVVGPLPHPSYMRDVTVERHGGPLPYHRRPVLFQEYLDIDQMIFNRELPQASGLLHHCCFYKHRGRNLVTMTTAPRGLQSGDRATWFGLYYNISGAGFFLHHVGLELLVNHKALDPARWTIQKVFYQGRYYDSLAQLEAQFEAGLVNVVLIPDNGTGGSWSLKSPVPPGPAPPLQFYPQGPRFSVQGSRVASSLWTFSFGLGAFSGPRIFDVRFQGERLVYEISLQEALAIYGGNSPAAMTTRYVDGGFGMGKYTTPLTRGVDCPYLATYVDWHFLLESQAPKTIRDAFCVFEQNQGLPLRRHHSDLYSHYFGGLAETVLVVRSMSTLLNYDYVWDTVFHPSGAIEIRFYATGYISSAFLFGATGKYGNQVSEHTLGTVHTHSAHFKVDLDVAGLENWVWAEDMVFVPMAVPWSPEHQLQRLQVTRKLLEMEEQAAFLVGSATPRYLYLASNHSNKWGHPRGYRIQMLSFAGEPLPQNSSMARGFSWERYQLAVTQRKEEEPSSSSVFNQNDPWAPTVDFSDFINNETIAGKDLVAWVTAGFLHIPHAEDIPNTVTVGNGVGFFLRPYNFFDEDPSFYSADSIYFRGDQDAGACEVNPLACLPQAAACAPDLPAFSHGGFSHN

Row | pIC50 (Human recombinant DAO) | pIC50 [1] | SMILES
1 | < 6.00 | – | CC(C)NC(=O)CN1CCc2cc(OC/C(=C/F)CN)ccc2C1=O [Example 9, 2-[6-[(E)-2-(aminomethyl)-3-fluoro-allyloxy]-1-oxo-3,4-dihydroisoquinolin-2-yl]-N-isopropyl-acetamide hydrochloride]
2 | < 7.00 | – | CC(C)CNC(=O)CN1CCc2cc(OC/C(=C/F)CN)ccc2C1=O [Example 11, 2-[6-[(E)-2-(aminomethyl)-3-fluoro-allyloxy]-1-oxo-3,4-dihydroisoquinolin-2-yl]-N-isobutyl-acetamide hydrochloride]
3 | – | 8.39 | CCNC(=O)CN1CCc2cc(OC/C(=C\F)CN)ccc2C1=O [Example 6, 2-[6-[(Z)-2-(aminomethyl)-3-fluoro-allyloxy]-1-oxo-3,4-dihydroisoquinolin-2-yl]-N-ethyl-acetamide hydrochloride]
4 | – | 8.43 | CNC(=O)CN1CCc2cc(OC/C(=C\F)CN)ccc2C1=O [Example 4, 2-[6-[(Z)-2-(aminomethyl)-3-fluoro-allyloxy]-1-oxo-3,4-dihydroisoquinolin-2-yl]-N-methyl-acetamide hydrochloride]
5 | < 7.00 | – | CC(C)(C)NC(=O)CN1CCc2cc(OC/C(=C/F)CN)ccc2C1=O [Example 15, 2-[6-[(E)-2-(aminomethyl)-3-fluoro-allyloxy]-1-oxo-3,4-dihydroisoquinolin-2-yl]-N-tert-butyl-acetamide hydrochloride]
6 | < 7.00 | – | NC/C(=C\F)COc1ccc2c(c1)CCN(CC(=O)NC1CCC1)C2=O [Example 17, 2-[6-[(E)-2-(aminomethyl)-3-fluoro-allyloxy]-1-oxo-3,4-dihydroisoquinolin-2-yl]-N-cyclobutyl-acetamide hydrochloride]
7 | < 7.00 | – | NC/C(=C\F)COc1ccc2c(c1)CCN(CC(=O)NC1CC1)C2=O [Example 16, 2-[6-[(E)-2-(aminomethyl)-3-fluoro-allyloxy]-1-oxo-3,4-dihydroisoquinolin-2-yl]-N-cyclopropyl-acetamide hydrochloride]
8 | < 7.00 | – | COCCNC(=O)CN1CCc2cc(OC/C(=C/F)CN)ccc2C1=O [Example 22, 2-[6-[(E)-2-(aminomethyl)-3-fluoro-allyloxy]-1-oxo-3,4-dihydroisoquinolin-2-yl]-N-(2-methoxyethyl)acetamide hydrochloride]
9 | < 7.00 | – | NC/C(=C\F)COc1ccc2c(c1)CCN(CC(=O)N1CCCC1)C2=O [Example 20, 6-[(E)-2-(aminomethyl)-3-fluoro-allyloxy]-2-(2-oxo-2-pyrrolidin-1-yl-ethyl)-3,4-dihydroisoquinoline-1-one hydrochloride]
10 | – | 9.00 | CN(C)C(=O)CN1CCc2cc(OC/C(=C\F)CN)ccc2C1=O [Example 8, 2-[6-[(Z)-2-(aminomethyl)-3-fluoro-allyloxy]-1-oxo-3,4-dihydroisoquinolin-2-yl]-N,N-dimethyl-acetamide hydrochloride]
11 | < 7.00 | – | CCNC(=O)CN1CCc2cc(OC/C(=C/F)CN)ccc2C1=O [Example 5, 2-[6-[(E)-2-(aminomethyl)-3-fluoro-allyloxy]-1-oxo-3,4-dihydroisoquinolin-2-yl]-N-ethyl-acetamide hydrochloride]
12 | < 6.00 | 7.93 | CCCNC(=O)CN1CCc2cc(OC/C(=C/F)CN)ccc2C1=O [Example 21, 2-[6-[(E)-2-(aminomethyl)-3-fluoro-allyloxy]-1-oxo-3,4-dihydroisoquinolin-2-yl]-N-propyl-acetamide hydrochloride]
13 | < 7.00 | – | CNC(=O)CN1CCc2cc(OC/C(=C/F)CN)ccc2C1=O [Example 3, 2-[6-[(E)-2-(aminomethyl)-3-fluoro-allyloxy]-1-oxo-3,4-dihydroisoquinolin-2-yl]-N-methyl-acetamide hydrochloride]
14 | < 6.00 | 8.40 | NC/C(=C\F)COc1ccc2c(c1)CCN(CC(=O)NC1CC(F)(F)C1)C2=O [Example 19, 2-[6-[(E)-2-(aminomethyl)-3-fluoro-allyloxy]-1-oxo-3,4-dihydroisoquinolin-2-yl]-N-(3,3-difluorocyclobutyl)-acetamide hydrochloride]
15 | < 7.00 | 8.47 | CS(=O)(=O)CCN1CCc2cc(OC/C(=C/F)CN)ccc2C1=O [Example 25, 6-[(E)-2-(aminomethyl)-3-fluoro-allyloxy]-2-(2-methylsulfonylethyl)-3,4-dihydroisoquinoline-1-one hydrochloride]
16 | < 6.00 | 8.06 | CS(=O)(=O)CCNC(=O)CN1CCc2cc(OC/C(=C/F)CN)ccc2C1=O [Example 18, 2-[6-[(E)-2-(aminomethyl)-3-fluoro-allyloxy]-1-oxo-3,4-dihydroisoquinolin-2-yl]-N-(2-methanesulfonylethyl)acetamide hydrochloride]
17 | < 7.00 | – | NC/C(=C\F)COc1ccc2c(c1)CCN(CC(=O)NCC(F)(F)F)C2=O [Example 13, 2-[6-[(E)-2-(aminomethyl)-3-fluoro-allyloxy]-1-oxo-3,4-dihydroisoquinolin-2-yl]-N-(2,2,2-trifluoroethyl)acetamide hydrochloride]
18 | < 6.00 | 7.95 | CN(C)C(=O)CN1CCc2cc(OC/C(=C/F)CN)ccc2C1=O [Example 7, 2-[6-[(E)-2-(aminomethyl)-3-fluoro-allyloxy]-1-oxo-3,4-dihydroisoquinolin-2-yl]-N, N-dimethyl-acetamide hydrochloride]

Row | SMILES | pIC50 (Human recombinant DAO) | pIC50 [1]
19 | CCOP(=O)(CCN1CCc2cc(OC/C(=C/F)CN)ccc2C1=O)OCC [Example 24, 6-[(E)-2-(aminomethyl)-3-fluoro-allyloxy]-2-(2-diethoxyphosphorylethyl)-3,4-dihydroisoquinoline-1-one hydrochloride] | < 7.00 | 8.44
